Among the test systems are HOP-92 NSCLC; COLO 205 colon; ACHN renal; CAKI-1 renal; KM12 colon; UACC-257 melanoma; SNB-75 CNS; NCI-H522 lung; NCI-H460 lung; K-562 leukemia.
Assay in all cases: inhibition of tumour cell growth, NCI panel, 48 h

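Cells were grown in 96-well plates and exposed to each compound for 48 hours at five concentrations; endpoints were interpolated linearly between bracketing concentrations, or set to the highest concentration if not reached. Here, GI50 denotes the concentration required for 50% inhibition of growth. The concentration for full growth arrest is given as TGI.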

As to `COc1ccc(-c2n/c(=C\c3c(O)[nH]c4ccc(OC)cc34)cc3c2=Nc2ccccc2-3)cc1`, the GI50 in the experiment on HOP-92 NSCLC was 13.8 µM; in the experiment on COLO 205 colon, 10.7 µM; in the experiment with ACHN renal, 26.7 µM; in the experiment with CAKI-1 renal, 8.32 µM; in the experiment with KM12 colon, 3.8 µM; in the experiment with UACC-257 melanoma, 2.07 µM. Moreover, the GI50 with SNB-75 CNS is 1.55 µM. Also, the TGI with HOP-92 NSCLC is 36.1 µM; with COLO 205 colon, 56.8 µM; with ACHN renal it was greater than 100 µM; in the experiment with CAKI-1 renal, 45 µM; in the experiment on KM12 colon it was greater than 100 µM; in the experiment with UACC-257 melanoma, 4.48 µM. Moreover, the TGI in the experiment with SNB-75 CNS was 2.99 µM.

As for `Cc1ccc(N=Cc2ccc3c(c2)OCO3)cc1C`, the TGI in the experiment on HOP-92 NSCLC, with COLO 205 colon, in the experiment with ACHN renal, in the experiment with CAKI-1 renal, in the experiment with NCI-H522 lung and in the experiment with KM12 colon was greater than 100 µM in each case. Further, the TGI in the experiment with NCI-H460 lung and in the experiment on SNB-75 CNS was greater than 100 µM in each case.

On to `COC(C(=O)[O][Ge]([CH3])([CH3])[CH3])c1ccccc1` (stereo not drawn), for which the GI50 in the experiment with HOP-92 NSCLC, in the experiment on COLO 205 colon, in the experiment with ACHN renal, in the experiment with CAKI-1 renal, in the experiment with NCI-H522 lung and with KM12 colon was greater than 100 µM in each case. Moreover, the GI50 in the experiment with UACC-257 melanoma, in the experiment on NCI-H460 lung and in the experiment with SNB-75 CNS was greater than 100 µM each time. Also, the TGI in the experiment with HOP-92 NSCLC, in the experiment on COLO 205 colon, in the experiment with ACHN renal, in the experiment on CAKI-1 renal, in the experiment with NCI-H522 lung and in the experiment on KM12 colon was greater than 100 µM throughout. Also, the TGI in the experiment on UACC-257 melanoma, in the experiment with NCI-H460 lung and with SNB-75 CNS was greater than 100 µM each time.

As for `CCCCCCCCN=C(N)c1ccc(N2CCN(c3ccc(C(N)=NCCCCCCCC)cc3)CC2)cc1`, the GI50 in the experiment with K-562 leukemia is 1.46 µM; in the experiment with HOP-92 NSCLC it was 14.9 µM; with COLO 205 colon, 1.49 µM; in the experiment with ACHN renal, 2.37 µM; in the experiment on CAKI-1 renal, 1.28 µM; in the experiment on NCI-H522 lung, 2.27 µM. In addition, the results for the GI50 in the experiment on KM12 colon, in the experiment with UACC-257 melanoma and in the experiment with NCI-H460 lung were 1.9 µM, 4.03 µM and 1.63 µM, respectively. In addition, the TGI with K-562 leukemia was greater than 50 µM; with HOP-92 NSCLC it was greater than 50 µM; with COLO 205 colon, 19.2 µM; with ACHN renal, 12.7 µM; with CAKI-1 renal, 3.68 µM; with NCI-H522 lung it was greater than 50 µM. Also, the TGI with KM12 colon was 8.81 µM; in the experiment with UACC-257 melanoma it was 13.2 µM; in the experiment with NCI-H460 lung, greater than 50 µM.

Turning to `CCCCC(CC)CN=C(N)NC(N)=NCCCCCCN=C(N)NC(N)=NCC(CC)CCCC` (stereo not drawn), the GI50 was 1.82 µM in the experiment on COLO 205 colon, 2.85 µM with ACHN renal, 2.93 µM in the experiment with CAKI-1 renal and 2.62 µM in the experiment with UACC-257 melanoma. The TGI stood at 3.31 µM with COLO 205 colon, 7.74 µM in the experiment on ACHN renal, 10.3 µM with CAKI-1 renal and 8.73 µM in the experiment with UACC-257 melanoma.

As for `COc1cc(OC(C)=O)cc2c(OC(C)=O)ccc(OC(C)=O)c12`, the TGI with K-562 leukemia was greater than 100 µM; in the experiment with HOP-92 NSCLC, 46.7 µM; in the experiment with ACHN renal it was greater than 100 µM; with CAKI-1 renal, greater than 100 µM; with NCI-H522 lung, greater than 100 µM; in the experiment with KM12 colon, greater than 100 µM. Further, the TGI with UACC-257 melanoma and in the experiment with NCI-H460 lung was greater than 100 µM in each case.

On to `COc1ccc(-c2ccc(/C=N/n3c(COc4ccc(Cl)cc4Cl)nn(CN4CCOCC4)c3=S)o2)c([N+](=O)[O-])c1`, for which the GI50 with K-562 leukemia was 18.2 µM; in the experiment with HOP-92 NSCLC it was 0.829 µM; in the experiment on COLO 205 colon, 30.8 µM; in the experiment with ACHN renal it was 36.1 µM; in the experiment on CAKI-1 renal, 22.7 µM; in the experiment on NCI-H522 lung, 45.1 µM. In addition, the GI50 with KM12 colon was 16.7 µM; in the experiment on NCI-H460 lung, 25.6 µM. Besides, the TGI with K-562 leukemia was 46.6 µM; in the experiment on HOP-92 NSCLC, 27.6 µM; with COLO 205 colon, greater than 100 µM; in the experiment with ACHN renal it was greater than 100 µM; in the experiment with CAKI-1 renal it was 67.4 µM; in the experiment on NCI-H522 lung it was greater than 100 µM. The TGI in the experiment with KM12 colon is 32.6 µM; with NCI-H460 lung, greater than 100 µM.

Regarding `O=C(O)/C=C\C(=O)N1C/C(=C\c2ccccc2Cl)C(=O)/C(=C/c2ccccc2Cl)C1`, the GI50 was 2.44 µM in the experiment with K-562 leukemia; 4.43 µM with HOP-92 NSCLC; 2.27 µM in the experiment on COLO 205 colon; 4.29 µM in the experiment on CAKI-1 renal; 1.96 µM in the experiment on NCI-H522 lung; 1.6 µM with KM12 colon. Moreover, the GI50 was 6.44 µM in the experiment on UACC-257 melanoma and 3.8 µM with SNB-75 CNS. For the same molecule, the TGI in the experiment on K-562 leukemia stood at 82 µM; with HOP-92 NSCLC it was 15.5 µM; in the experiment on COLO 205 colon, 4.33 µM; with CAKI-1 renal, 15 µM; in the experiment on NCI-H522 lung it was 4.1 µM; in the experiment on KM12 colon, 3.12 µM. In addition, the TGI turned out to be 20.4 µM in the experiment with UACC-257 melanoma and 14 µM with SNB-75 CNS.

As to `CC#C[C@]1(O)CC[C@H]2[C@@H]3CCC4=CC(=O)CCC4=C3[C@@H](c3ccc4c(c3)OCO4)C[C@@]21C`, the GI50 was 17.7 µM in the experiment with HOP-92 NSCLC; 118 µM with COLO 205 colon; 47.4 µM in the experiment with ACHN renal; 110 µM in the experiment on NCI-H522 lung; 112 µM in the experiment with KM12 colon; 119 µM with UACC-257 melanoma. The GI50 in the experiment with NCI-H460 lung was 108 µM; in the experiment with SNB-75 CNS, 42.8 µM. In addition, the TGI in the experiment on HOP-92 NSCLC was determined as 131 µM; in the experiment on COLO 205 colon, 291 µM; in the experiment on ACHN renal it was 633 µM; in the experiment with NCI-H522 lung it was 460 µM; in the experiment on KM12 colon it was 299 µM; in the experiment on UACC-257 melanoma it was 410 µM. The TGI with NCI-H460 lung came out at 305 µM; in the experiment on SNB-75 CNS, 521 µM.

With `C[C@@H]1C[C@H]2CC[C@H](O2)[C@H](C)C(=O)O[C@@H](C)C[C@@H]2CC[C@@H](O2)[C@@H](C)C(=O)O[C@H](C)C[C@H]2CC[C@H](O2)[C@H](C)C(=O)O[C@@H](C)C[C@@H]2CC[C@@H](O2)[C@@H](C)C(=O)O1`, the TGI in the experiment on K-562 leukemia was greater than 33.8 µM; in the experiment with HOP-92 NSCLC it was 0.524 µM; in the experiment with COLO 205 colon, 0.33 µM; in the experiment with ACHN renal it was 2.45 µM; with CAKI-1 renal it was 12.8 µM; in the experiment with NCI-H522 lung, 0.68 µM. The TGI is 0.806 µM in the experiment with UACC-257 melanoma and greater than 100 µM in the experiment with NCI-H460 lung.

For the molecule `Nc1ccn(CCNCCn2cnc3nc(N)[nH]c(=O)c32)c(=O)n1`, the TGI with K-562 leukemia, with HOP-92 NSCLC, in the experiment on COLO 205 colon, with ACHN renal, in the experiment on NCI-H522 lung and in the experiment with KM12 colon was greater than 100 µM each time. The TGI in the experiment on UACC-257 melanoma and in the experiment on NCI-H460 lung was greater than 100 µM throughout.

For the origin of these results see PubChem BioAssay (NCI).
